These results are taken from ChEMBL document CHEMBL2040735, “Synthesis, benzodiazepine receptor binding and molecular modelling of isochromeno[4,3-c]pyrazol-5(1H)-one derivatives” (Eur J Med Chem, 2012).

The species entered for test [1] is Bos taurus. In words: Displacement of [3H]flunitrazepam from benzodiazepine receptor in bovine brain membrane at 10 uM by liquid scintillation counting. Format: cell membranes.
Test [2] is filed under the species Bos taurus. The settings on record: Brain, Membrane, 1 uM.
Description: Displacement of [3H]flunitrazepam from benzodiazepine receptor in bovine brain membrane at 1 uM by liquid scintillation counting

The compound `Cc1nn(-c2cccc(Cl)c2)c2c1oc(=O)c1ccccc12` returned an inhibition in the test filed under Bos taurus [1] of 28%.

`Cc1ccc2c(c1)c(=O)oc1c(C)nn(-c3ccccc3)c12` gave an inhibition in the test filed under Bos taurus [1] of 6%.

In the case of `CN1C(=O)CN=C(c2ccccc2)c2cc(Cl)ccc21`, in the test listed under Bos taurus [2], the inhibition came to 98%.

For the compound `Cc1ccc(-n2nc(C)c3c(=O)oc4ccccc4c32)cc1`, the inhibition in the test filed under Bos taurus [1] was determined as 66%.

`O=c1oc2ccccc2c2c1c(-c1ccccc1)nn2-c1ccccc1` gave an inhibition in the test listed under Bos taurus [1] of 10%.

For `Cc1nn(-c2cccc(Cl)c2)c2c1c(=O)oc1ccccc12`, the inhibition in the test filed under Bos taurus [1] amounted to 86%.

Turning to `Cc1cccc(-n2nc(C)c3oc(=O)c4ccccc4c32)c1`, the inhibition in the test listed under Bos taurus [1] worked out at 40%.

`Cc1nn(-c2ccccc2)c2c1c(=O)oc1ccccc12` gave an inhibition in the test filed under Bos taurus [1] of 76%.

`Cc1nn(-c2ccccc2)c2c1oc(=O)c1cc(Cl)ccc12` displayed an inhibition in the test listed under Bos taurus [1] of 0%.

Compound `Cc1cccc(-n2nc(C)c3c(=O)oc4ccccc4c32)c1` returned an inhibition in the test listed under Bos taurus [1] of 78%.

As to `Cc1nn(-c2ccccc2)c2c1oc(=O)c1ccccc12`, in the test listed under Bos taurus [1], the inhibition was 20%.

`Cc1nn(-c2ccccc2)c2c1oc(=O)c1ccc(Cl)cc12` registered an inhibition in the test listed under Bos taurus [1] of 35%.

Regarding `O=c1oc2c(-c3ccccc3)nn(-c3ccccc3)c2c2ccccc12`, the inhibition in the test listed under Bos taurus [1] worked out at 5%.

With `Cc1ccc(-n2nc(C)c3oc(=O)c4ccccc4c32)cc1`, in the test listed under Bos taurus [1], the inhibition was found to be 13%.

In turn, `O=c1oc2cnn(-c3ccccc3)c2c2ccccc12` had an inhibition in the test listed under Bos taurus [1] of 54%.

Usually inhibition stands for the percentage by which the read-out fell short of the control. A high value points to a response far below the control.
